In BindingDB's records for doi:10.1021/jm801395v (Universita Di Siena, 2009):

Tests used:
Test in all cases: Reverse Transcriptase Assay
[1] = molecular target: T1, Gag-Pol polyprotein [588-1027,Y776L]/[588-1147,Y776L] (Human immunodeficiency virus 1, UniProt P04585, Y776L)
T1 construct: 588-1027; 588-1147
Description: (§1) The inhibition of the RNA-dependent DNA polymerase activity of the HIV-1 reverse transcriptase enzyme was measured using a primer extension assay. The substrate-incorporated radioactivity was quantitated by scintillation counting.

[2] = molecular target: T2, Gag-Pol polyprotein [588-1027,Y769I]/[588-1147,Y769I] (Human immunodeficiency virus 1, UniProt P04585, Y769I); settings: pH 7.5; 37 °C
T2 construct: 588-1027; 588-1147
Description: as §1

[3] = molecular target: T3, Gag-Pol polyprotein [588-1027] (Human immunodeficiency virus type 1 group M subtype B (isolate HXB2), UniProt P04585); settings: pH 7.5; 37 °C
T3 construct: 588-1027
Description: as §1

## CCC1(c2ccc(COc3ccccc3)cc2)Oc2cccnc2-n2cccc2C1=O (stereo not given) [8-ethyl-8-[4-(phenoxymethyl)phenyl]-9-oxa-2,14-diazatricyclo[8.4.0.0^{2,6}]tetradeca-1(14),3,5,10,12-pentaen-7-one]
[1]
  Ki: < 10 µM
[2]
  Ki: < 10 µM

## CCC1(c2ccc(COc3cccc(Cl)c3)cc2)Oc2cccnc2-n2cccc2C1=O (stereo not given) [8-[4-(3-chlorophenoxymethyl)phenyl]-8-ethyl-9-oxa-2,14-diazatricyclo[8.4.0.0^{2,6}]tetradeca-1(14),3,5,10,12-pentaen-7-one]
[2]
  Ki: < 10 µM

## CCC1(c2ccc(COc3cccc(Cl)c3)cc2)Oc2ccccc2-n2cccc2C1=O (stereo not given) [8-[4-(3-chlorophenoxymethyl)phenyl]-8-ethyl-9-oxa-2-azatricyclo[8.4.0.0^{2,6}]tetradeca-1(14),3,5,10,12-pentaen-7-one]
[3]
  Ki: 0.1 µM
[2]
  Ki: < 10 µM
